Counter-ions that a name gives are not always drawn.
Tests used:
[1] = Acute toxicity, LD50, ICR mouse; conditions: in vivo
Solubility = format: physicochemical
striated structure = experiment: Pathological examination of striated structure (Experimental Example 1); format: in vivo, dog; conditions: previously administered, 0.5 mg/kg i.v.
Experimental: (§1) A dog was anesthetized with 50 mg/kg of sodium pentobarbital and a 2% CaC12 solution was intravenously injected into the femoral vein of the animal at a rate of 1.33 ml/min/10 kg. After 90 min, 0.1 mg, 0.2 mg and 0.3 mg of adrenaline were successively injected thereto intraveneously.
From a pathological viewpoint, the striated structure of a subject was damaged in the case where no bunazosin hydrochloride was previously administered.

[2] = Acute toxicity, LD50, Wistar rat; conditions: in vivo
[3] = system: Creatinie phosphokinase (CPK); experiment: Creatine phosphokinase (CPK) after CaCl2, sodium polystyrenesulfonate and adrenaline in anesthetized dog (Experimental Example 2); format: in vivo; conditions: 0.5 mg/kg previously administered
Experimental: A dog was anesthetized with 50 mg/kg of sodium pentobarbital and a 0.5% CaCl2 solution was intravenously injected into the femoral vein of the animal at a rate of 1.33 ml/min/10 kg simultaneously with enemiasis of 25 g of sodium polystyrenesulfonate. After 30 min, 0.05 mg/kg of adrenaline was intravenously injected thereto.

dog = experiment: Adrenaline-induced ventricular tachycardia/fibrillation after CaCl2 infusion in anesthetized dog (Experimental Example 1); format: in vivo; conditions: 0.5 mg/kg i.v. 12 min before adrenaline, 0.1, 0.2 and 0.3 mg adrenaline successively i.v., 2% CaCl2 infusion
Experimental: as §1

## CCCC(=O)N1CCCN(c2nc(N)c3cc(OC)c(OC)cc3n2)CC1 [bunazosin hydrochloride]
[1]; im, female, intramuscular
  LD50: 598 mg/kg
[1]; im, male, intramuscular
  LD50: 660 mg/kg
[1]; iv, female
  LD50: 80 mg/kg
[1]; iv, male
  LD50: 57 mg/kg
[1]; po, female
  LD50: 1250 mg/kg
[1]; po, male
  LD50: 1200 mg/kg
[1]; sc, female, subcutaneous
  LD50: 630 mg/kg
[1]; sc, male, subcutaneous
  LD50: 730 mg/kg
Solubility; absolute ethanol
  solubility: hardly soluble
Solubility; chloroform
  solubility: almost insoluble
Solubility; formic acid
  solubility: highly soluble
Solubility; methanol
  solubility: not readily soluble
Solubility; n-butanol
  solubility: hardly soluble
Solubility; water
  solubility: not readily soluble
Striated structure
  change of striated structure (pathological viewpoint): no change was observed
[2]; im, female, intramuscular
  LD50: 152 mg/kg
[2]; im, male, intramuscular
  LD50: 205 mg/kg
[2]; iv, female
  LD50: 50 mg/kg
[2]; iv, male
  LD50: 51 to 64 mg/kg
[2]; po, female
  LD50: 1280 mg/kg
[2]; sc, female, subcutaneous
  LD50: 365 mg/kg
[2]; sc, male, subcutaneous
  LD50: 430 mg/kg
[3]; 60 min after injection of adrenaline
  CPK, difference from the control: no significant difference from the control
[3]; determined 60 min after injection of adrenaline (0.05 mg/kg i.v.)
  CPK: 85.1±15.6
dog
  ventricular tachycardia or ventricular fibrillation: none among ten animals

Reference: US4707477A, “Treating and preventing agent for ischemic cardiac disease and arrhythmia” (priority 1985, dated 1987)
